According to paper PMC6030077, “Dual role of HDAC10 in lysosomal exocytosis and DNA repair promotes neuroblastoma chemoresistance” (Scientific Reports, 2018):
Entries after “also recorded” stand apart in the source; their conditions may differ.

Experiments:
BE(2)-C cells [1] = test: Flow cytometric analysis of LysoTracker DND-99 staining (lysosomal accumulation); format: cell-based, human; conditions: for lysosomal accumulation (LysoTracker staining): 24 h, bufexamac 30 µM, tubastatin A 7.5 µM, tubacin 7.5 µM, VPA 1 mM, vacuolin-1 10 µM
Method: Six days after siRNA transfection or 24 h after treatment with HDAC or lysosomal inhibitors, cells were stained for 1 h with 50 nM LysoTracker® Red DND-99 in medium under standard cell culture conditions. Cells were washed with ice-cold RPMI w/o phenol-red and detached using Trypsin/EDTA for 3 minutes at 37 °C. Cells were centrifuged, resuspended in RPMI w/o phenol red and LysoTracker® Red fluorescence was quantified on a BD FACSCanto II platform using the PE filter setting.

HDACs 1–3 = test: Western blot analysis of histone H3 acetylation; format: cell-based, human; conditions: 1 mM, 6 h
Method: Western blot analysis was performed as previously described. […] (b) Western blot analysis of histone H3 […] class IIb HDAC inhibitor tubastatin A, respectively. Numbers below blot indicate histone H3 acetylation normalized to total histone H3 expression and relative to DMSO treated control. Bands of indicated proteins were developed on the same blot. (c) Flow cytometric analysis of LysoTracker DND-99 staining in BE(2)-C cells 24h after treatment with class I HDAC inhibitor VPA and class IIb HDAC inhibitor tubastatin A. Statistical analyses were performed on non-normalized data using paired, two-tailed t-test (***p < 0.001; **0.001 ≤ p < 0.01; *0.01 ≤ p < 0.05). Error bars represent SEM. 3 (1 picture or pasted object on this page, not shown here)

BE(2)-C cells [2] = test: Flow cytometric quantification of intracellular doxorubicin accumulation, BE(2)-C; format: cell-based, human; conditions: for intracellular doxorubicin after co-treatment: 48 h, bufexamac 30 µM, tubastatin A 7.5 µM, tubacin 7.5 µM
Method: (§1) For flow cytometric quantification of intracellular doxorubicin after HDAC6/10 inhibition, BE(2)-C, SK-N-AS, IMR-32, HAP1 wild type and HDAC10 knockout cells were seeded in 6-well dishes at a density of 1.5 ∗ 10^5 cells/well (BE(2)-C and SK-N-AS, HAP1) and 3 ∗ 10^5 cells/well (IMR-32). Cells were treated with 25 ng/ml, 50 ng/ml, 100 ng/ml or 1 µg/ml doxorubicin, respectively, for 3–48 h (see respective figure legend). Where indicated, cells were co-treated with HDAC6/10 or lysosomal inhibitors. In case of co-treatment with vacuolin-1, vacuolin-1 was directly added to cells under doxorubicin treatment 1 h or 24 h prior to analysis. Flow cytometric quantification of intracellular doxorubicin after HDAC6, HDAC10 or P-glycoprotein knockdown in BE(2)-C cells was performed 5 days (P-glycoprotein) or 6 days (HDAC6/10) after transfection with siRNA. To that end, cells were seeded 3–4 days after transfection into 6-well dishes at 1.5 ∗ 10^5 cells per well and treated with 100 ng/ml doxorubicin +/− HDAC6/10 and lysosomal inhibitors for the last 24 h. After doxorubicin treatment, BE(2)-C, SK-N-AS, IMR-32 and HAP1 cells were washed with ice-cold RPMI w/o phenol-red and detached using Trypsin/EDTA for 3 minutes at 37 °C. Cells were centrifuged, resuspended in RPMI w/o phenol red and doxorubicin fluorescence was quantified on a BD FACSCanto II platform using the PE filter setting.

BE(2)-C cells [3] = test: Flow cytometric analysis of cell surface LAMP-1 (lysosomal exocytosis); format: cell-based, human; conditions: 6 h tubastatin A 7.5 µM, bufexamac 30 µM, tubacin 7.5 µM, vacuolin-1 10 µM 1 h
Method: (§2) Cells were dissociated from dishes using non-enzymatic cell dissociation reagent for five minutes. Cells were counted using a ViCell XR automatic cell counter (Beckmann Coulter) and 2.5 ∗ 10^5 cells were transferred into a pre-cooled 96-well round bottom plate (TPP92097). Cells were stained for 1.5–2 hours on ice with primary anti P-gp (Biozol ABA-AB00143-1.1), LAMP-1 (H4A3, DHSB) antibody or isotype control (DLN-05794, Dianova, Barcelona, Spain) and for 1 hour with APC-labeled secondary antibody (Dianova 115-136-068). Cells were washed three times in FACS buffer (5% FBS in PBS) after each antibody incubation step. For evaluation of DNA double-strand breaks, cells were detached from dishes using trypsin, counted using a ViCell XR automatic cell counter (Beckmann Coulter) and transferred into a pre-cooled 96-well round bottom plate (4 ∗ 10^6 cells/well). Cells were fixed and permeabilized using the eBioscience^TM Foxp3/Transcription Factor Staining Buffer Set (Thermo Fisher Scientific). Cells were stained for 1.5 h with Phospho-Histone H2A.X (S139) primary antibody (CST #9718) and for 1 h in Alexa-488-labeled secondary antibody (ThermoFisher A-11008). Cells were washed three times in 1× permeabilization buffer after each antibody incubation step and fluorescence was quantified on a BD FACSCanto II platform.

BE(2)-C cells [4] = test: Pulse-chase analysis of doxorubicin secretion/retention; format: cell-based, human; conditions: 12 h pre-treatment, 1 µg/ml doxorubicin 3 h, washout, relative to t0
Method: To test whether HDAC10 inhibition prolonged the retention of doxorubicin, we used a pulse-chase approach in which BE(2)-C cells were pre-treated over night with HDAC6/10 inhibitors and then loaded with high concentrations of doxorubicin for 3 h (1 µg/ml). After doxorubicin washout, HDAC6/10 or HDAC6 inhibitors were re-added (t0), and intracellular doxorubicin fluorescence was measured at t0, as well as 3 h (t3h) and 6 h (t6h) after doxorubicin removal (Fig. 5h–k). […] In summary, secretion of doxorubicin was slowed down in case of HDAC6/10 inhibition but not by specific HDAC6 inhibition alone.
as §1

HDAC6 = test: Western blot analysis of tubulin K40 acetylation as a marker for HDAC6 inhibition; format: cell-based, human; conditions: 24 h; bufexamac 30 µM, tubastatin A 7.5 µM, tubacin 7.5 µM
Method: Western blot analysis was performed as previously described. The following antibodies were used: anti-HDAC6 (sc-11420, Santa Cruz), anti-HDAC10 (H3413, Sigma), anti-acetylated histone H3 (06-911, Merck Millipore), anti-histone H3 (9715, Cell Signaling Technology, Cambridge UK), anti-LAMP-1 (H4A3, DHSB, Iowa City, IA, USA), anti-LAMP-2 (H4B4; Santa Cruz Biotechnology), anti-acetylated tubulin (6–11B-1; Sigma), anti-tubulin (2148, Cell Signaling Technology), anti P-glycoprotein (13978 S, Cell Signaling Technology) and anti-β-actin (clone AC-15; Sigma).

BE(2)-C cells [5] = test: Cell viability, automated trypan blue exclusion, BE(2)-C; format: cell-based, human; conditions: 100 ng/ml doxorubicin; for viability of BE(2)-C cells, single treatment: 7.5 µM tubastatin A or vacuolin-1 alone; for viability of BE(2)-C cells, combination with doxorubicin, 24 h, compared to doxorubicin alone: 10 µM verapamil or vacuolin-1
Method: Adherent cell lines were trypsinized and cells were pooled with corresponding supernatant, centrifuged and resuspended in 1.5 ml cell culture media. Cell viability was measured by automated trypan blue staining with the Vi-Cell XR Cell Viability Analyzer from Beckman Coulter (Krefeld, Germany).

BE(2)-C cells [6] = test: Alkaline single cell gel electrophoresis assay (comet assay); format: cell-based, human; conditions: 18 h, tubastatin A 7.5 µM or doxorubicin 100 ng/ml
Method: BE(2)-C cells were treated with the HDAC6/10 inhibitor tubastatin A alone or in combination with the genotoxic drug doxorubicin (100 ng/ml doxorubicin, 7.5 µM tubastatin) for 18 h. Untreated cell aliquots and cells irradiated with 5 Gy (^137Cs radiation source, dose rate of 1 Gy min^−1) were used as negative and positive controls, respectively. Cells were subsequently analyzed by the alkaline comet assay as previously described[68],[69] with some modifications. In brief, the cells were mixed with 0.7% low-melting temperature agarose (Biozym), plated on two-well slides (Trevigen), and subsequently lysed overnight. Single cell electrophoresis was performed at 4 °C. Analysis of DNA damage was accomplished by fluorescence microscopy using a fully automated cell scanning system Metafer-4 (Metasystems) as described in[70]. DNA damage was assessed as “Tail DNA in %”. Statistical evaluation of two differently treated cell aliquots was performed with the Mann Whitney test using GraphPad Prism version 5.04 for Windows.

[7] = test system: proliferating human fibroblasts; test: Flow cytometric analysis of cellular doxorubicin fluorescence, fibroblasts; format: cell-based; conditions: 100 ng/ml doxorubicin 48 h; tubastatin A 7.5 µM, vacuolin-1 10 µM, verapamil 10 µM
BE(2)-C cells [8] = test: Flow cytometric analysis of γH2A.X staining (DNA double-strand breaks); format: cell-based, human; conditions: 24 h, tubastatin A 7.5 µM, vacuolin-1 10 µM; for DSBs (γH2A.X), treatment alone in the absence of doxorubicin: verapamil 10 µM
Method: as §2, with “Cells were stained for 1.5–2 hours on ice with primary anti P-gp (Biozol ABA-AB00143-1.1), LAMP-1 (H4A3, DHSB) antibody or isotype control (DLN-05794, Dianova, Barcelona, Spain) and for 1 hour with APC-labeled secondary antibody (Dianova 115-136-068).” left out, “Cells were stained for 1.5 h with Phospho-Histone H2A.X (S139) primary antibody (CST #9718) and for 1 h in Alexa-488-labeled secondary antibody (ThermoFisher A-11008).” left out

P-glycoprotein = test: Flow cytometric quantification of cell surface P-gp expression; format: cell-based, human; conditions: BE(2)-C; 6 h tubastatin A 7.5 µM; vacuolin-1 10 µM 1 h
Method: as §2

With `CCCC(CCC)C(=O)O` [VPA, valproic acid] the “lysosomal accumulation (LysoTracker staining)” value (BE(2)-C cells [1]) was “did not induce lysosomal accumulation” and the “inhibition of HDACs 1–3 (histone H3 acetylation)” value (HDACs 1–3) was “substantially inhibiting HDACs 1–3”.
For `CN(C)Cc1c(C(=O)NCCOc2ccc(C(=O)NO)cc2)oc2ccccc12` [abexinostat], the “concentrations at which lysosomal accumulation is induced” value (BE(2)-C cells [1]; 24 h treatment) was no less than 100 nM, the EC50 (BE(2)-C cells [1]; Homo sapiens, 24 h treatment, read-out: LysoTracker staining (lysosomal accumulation) EC50) was 0.183 µM and the “concentrations at which intracellular doxorubicin amounts are increased” value (BE(2)-C cells [2]; 100 ng/ml doxorubicin, 24 h co-treatment) was “greater than or equal to 500 nM”.
With `CCCCOc1ccc(CC(=O)NO)cc1` [bufexamac] the “cell surface LAMP-1 levels” value (BE(2)-C cells [3]) was “reduced surface LAMP-1 levels”, the “retention of intracellular doxorubicin 3 h and 6 h after doxorubicin removal” value (“retention” for short) (BE(2)-C cells [4]) was “retained higher levels of intracellular doxorubicin” and the “lysosomal accumulation (LysoTracker staining)” value (BE(2)-C cells [1]) was “caused lysosomal accumulation”. The “HDAC6 inhibition (tubulin K40 acetylation)” value (HDAC6) was “substantially inhibited HDAC6; also recorded: lowest potency against HDAC6”, the “intracellular doxorubicin after co-treatment” value (BE(2)-C cells [2]; 100 ng/ml doxorubicin) was “increased intracellular doxorubicin” and the “intracellular doxorubicin levels, short-term” value (BE(2)-C cells [2]; 12 h pre-treatment with inhibitor, then 1 µg/ml doxorubicin for 3 h) was “increased intracellular doxorubicin levels”.
With `COc1cccc2c1C(=O)c1c(O)c3c(c(O)c1C2=O)C[C@@](O)(C(=O)CO)C[C@@H]3O[C@H]1C[C@H](N)[C@H](O)[C@H](C)O1` [doxorubicin] the “viability of BE(2)-C cells, single treatment” value (BE(2)-C cells [5]) was “did not substantially reduce cell viability” and the “DSBs in comet assays, single treatment” value (BE(2)-C cells [6]) was “increased DSBs only trend-wise”.
For `O=C(CCCCCCC(=O)Nc1ccc([C@H]2O[C@@H](CSc3nc(-c4ccccc4)c(-c4ccccc4)o3)C[C@@H](c3ccc(CO)cc3)O2)cc1)NO` [tubacin], the “retention” value (BE(2)-C cells [4]) was “had no effect”, the “lysosomal accumulation (LysoTracker staining)” value (BE(2)-C cells [1]) was “did not” and the “HDAC6 inhibition (tubulin K40 acetylation)” value (HDAC6) was “substantially inhibited HDAC6”. For the same compound, the “intracellular doxorubicin after co-treatment” value (BE(2)-C cells [2]; 100 ng/ml doxorubicin) was “did not alter cellular doxorubicin content”.
For `Ic1cccc(/C=N/Nc2nc(N3CCOCC3)nc(N(c3ccccc3)c3ccccc3)n2)c1` [vacuolin-1], the “cell surface LAMP-1 levels” value (BE(2)-C cells [3]) was “robustly reduced surface LAMP-1”, the “viability of BE(2)-C cells, single treatment” value (BE(2)-C cells [5]) was “no substantial effect” and the “viability of BE(2)-C cells, combination with doxorubicin, 24 h, compared to doxorubicin alone” value (BE(2)-C cells [5]) was “strongly reduced cell viability”. The “intracellular doxorubicin in fibroblasts” value [7] was “did not exhibit strongly increased intracellular doxorubicin”, the “DSBs (γH2A.X), co-treatment with doxorubicin compared to doxorubicin alone” value (BE(2)-C cells [8]; 100 ng/ml doxorubicin) was “increased doxorubicin induced DSBs” and the “DSBs (γH2A.X), treatment alone in the absence of doxorubicin” value (BE(2)-C cells [8]) was “did not induce DSBs on its own”. For the same compound, the “retention” value (BE(2)-C cells [4]) was “retained higher levels of intracellular doxorubicin”, the “lysosomal accumulation (LysoTracker staining)” value (BE(2)-C cells [1]) was “increased LysoTracker staining” and the “cell surface P-gp levels” value (P-glycoprotein) was “slightly increased surface P-gp levels”. The “doxorubicin accumulation with lysosomal exocytosis inhibitor” value (BE(2)-C cells [2]; 100 ng/ml doxorubicin 48 h, 10 µM vacuolin-1) was “promoted doxorubicin accumulation”.
For `COc1ccc(CCN(C)CCCC(C#N)(c2ccc(OC)c(OC)c2)C(C)C)cc1OC` (centres unmarked) [verapamil], the “viability of BE(2)-C cells, combination with doxorubicin, 48 h, compared to doxorubicin alone” value (BE(2)-C cells [5]; 10 µM verapamil) was “not significant”, the “viability of BE(2)-C cells, combination with doxorubicin, 24 h, compared to doxorubicin alone” value (BE(2)-C cells [5]) was “only slightly reduced cell viability” and the “intracellular doxorubicin in fibroblasts” value [7] was “strongly increase doxorubicin accumulation”. For the same compound, the “DSBs (γH2A.X), treatment alone in the absence of doxorubicin” value (BE(2)-C cells [8]) was “did not induce DSBs” and the “basal levels of doxorubicin in cells” value (BE(2)-C cells [2]; 100 ng/ml doxorubicin 24 h, 10 µM verapamil) was “increased the basal levels of doxorubicin”.
